From patent US20060029548A1, “Methods of diagnosing, monitoring and treating pulmonary diseases” (priority 2004, published 2006)
Where “and” joins values, the source holds several entries; their conditions need not be identical. Identical values can stand only once.

Legend:
Assay type in all cases: in vivo
[1] = test system: human subjects (cough, throat irritation, sputum); assay: Symptoms other than dyspnoea recorded after inhalation challenge; conditions: all subjects
Text: (§1) The clinical study described in Examples 2-4 was randomized, double blind, crossover, and controlled. Each subject attended the laboratory on three occasions. Procedures on the initial screening visit included obtaining information about the study and a number of investigations in the following order: medical history, lung function, reversibility and skin prick testing. At visit 2 and 3, separated by 2-7 days, the subjects were subjected to either an ATP or AMP challenge in a randomized fashion such that, by the end of the study, each patient had been tested with both compounds. Before, immediately after, and 30 minutes after the challenge, lung function and Borg score for dyspnoea were determined, and symptoms other than dyspnoea were recorded.
(§2) For the tests described in Examples 2-4, ATP and AMP (Sigma, Gillingham, Dorset, England) were dissolved freshly in normal saline solution to produce a range of doubling concentrations from 0.227-929 umol/ml for ATP and from 0.138-1152 umol/ml for AMP and immediately used for bronchial challenge. The solutions were administered using a breath-activated dosimeter (Mefar, Bovezzo, Italy) with an output of 10 ul per inhalation [Prieto et al. (2003) Chest 123:993-997]. The subjects, while wearing a nose clip, inhaled (via a mouthpiece) five breaths of normal saline, followed by sequential doubling concentrations of either ATP or AMP from functional residual capacity to total lung capacity. FEV1 was measured from two minutes after the fifth inhalation of normal saline until there was a fall in FEV1 of ≧20% of its value recorded after saline inhalation or until maximal concentration of either ATP or AMP was inhaled. The provocative dose causing a 20% decrease in FEV1 (PD20) was calculated by interpolation of the logarithmic dose response curve.

[2] = test system: human subjects (airway responsiveness, FEV1); assay: Inhalation challenge test: airway responsiveness measured as change in FEV1 (PD20); conditions: for PD20 geometric mean: non-responders excluded; for PD20: individual subjects
Text: as §1
In the clinical study described in Examples 2-4, spirometric tests were performed using a dry spirometer (Vitalograph Ltd., Buckingham, England) and the best value of the three expiratory manoeuvers was expressed as liters and percentage of the predicted.
as §2
All data from the analyses described in Examples 2-4 were performed with a software package (GraphPad Prism Software, Inc., USA). The significance of differences among groups was assessed by Student's t-test, and analysis of categorical variables was examined by Chi-square test. Pearson's correlation coefficient and linear regression analysis were used to analyze the relationship between the percentage decreases in FEV1 and Borg score. The PD20 values for ATP and AMP were logarithmically transformed to normalize their distribution and presented as geometric means. All other numerical variables were expressed as the mean±SEM and significance was defined as p<0.05.

[3] = test system: human subjects (perception of dyspnoea); assay: Borg score for dyspnoea before and after inhalation challenge; design: key to ΔBorg (change in Borg score before and after challenge): Borg score after minus before challenge; 0–10 scale
Text: as §1
The modified Borg scale used to quantitate dyspnoea in the clinical study described in Examples 2-4 was a category scale in which words describing degrees of breathlessness were anchored to numbers between 0 and 10. The subjects were asked to select a number whose corresponding words most appropriately described their perception of breathlessness. The change in dyspnoea was expressed as ΔBorg, which was the difference in Borg score before and after the challenge [Rutgers et al. (2000) Eur. Respir. J. 16:486-490; Burdon et al. (1982) Am. Rev. Respir. Dis. 126:825-828]. Terms and associated numbers used in assessing Borg score were as follows: 0, “nothing at all”; 0.5, “very, very slight”; 1, “very slight”; 2, “slight”; 3, “moderate”; 4, “somewhat severe”; 5, “severe”; 7, “very severe”; 9, “very, very severe (almost maximal)”; and 10, “maximal” [Burdon et al. (1982)].
as §2

## Nc1ncnc2c1ncn2[C@@H]1O[C@H](COP(=O)(O)OP(=O)(O)OP(=O)(O)O)[C@@H](O)[C@H]1O [ATP, adenosine 5′-triphosphate]
[1]
  subjects who coughed after challenge: 90%
  subjects who had sputum after challenge: 28%
  subjects who had throat irritation after challenge: 75%
[2]; 19 smoking subjects (seven healthy smokers, seven smokers at risk, five COPD)
  patients with bronchoconstriction: 42%
[2]; ATP-responsive COPD patients
  mean PD20: 178.5 µmol/mL
[2]; COPD (n = 7)
  PD20 geometric mean: 178.5 µmol/mL
  PD20: 2.9 μmol/ml and >929 μmol/ml (2×) and 242.8 μmol/ml and 72.0 μmol/ml and 163.1 μmol/ml and 808.7 μmol/ml
[2]; COPD patients
  patients who responded to challenge: 67%
[2]; all subjects who had airway responsiveness
  PD20 geometric mean (range): 72.9 (2.9-808.7) umol/ml
[2]; asthma (n = 10)
  PD20 geometric mean: 48.7 µmol/mL
  PD20: 44.8 µmol/mL and 23.6 µmol/mL and 20.9 µmol/mL and 67.9 µmol/mL and 92.2 µmol/mL and 160.6 µmol/mL and 18.1 µmol/mL and 28.1 µmol/mL and 137.0 µmol/mL and 49.0 µmol/mL
[2]; asthma patients
  mean PD20: 48.7 µmol/mL
[2]; healthy non-smokers, no change in FEV1 or reduction of less than 20%
  response to challenge: negative
[2]; healthy smoker control subjects
  control subjects who responded: three of seven
[2]; healthy smokers
  subjects who responded to challenge: 57%
[2]; healthy smokers (n = 7)
  PD20 geometric mean: 197.0 µmol/mL
  PD20: 303.4 μmol/ml and >929 μmol/ml (3×) and 70.2 μmol/ml and 442.4 μmol/ml and 159.9 μmol/ml
[2]; non-smokers (n = 10), provocative dose causing 20% decrease in FEV1
  PD20: >929 µmol/mL
[2]; smokers at risk (n = 7)
  PD20: >929 μmol/ml (6×) and 52.8 μmol/ml
  PD20 geometric mean: 52.8 µmol/mL
[2]; non-smokers (n = 10)
  PD20 geometric mean: >929 µmol/mL
[2]; of the 40 subjects in the study
  subjects responsive to challenge: 47.5%
[2]; patients with asthma
  patients who responded to challenge: 100%
  ΔFEV1 (decrease in FEV1 as percentage of baseline FEV1): 29%
[2]; smokers at risk
  subjects who responded to challenge: 14%
[3]; COPD
  ΔBorg (change in Borg score before and after challenge): 2.6
[3]; COPD patients
  Borg score after challenge (at PD20): 2.7
[3]; healthy smokers
  Borg score after challenge: 1.3
[3]; patients with asthma
  Borg score after challenge (at PD20): 3.3
  ΔBorg (change in Borg score before and after challenge): 3.2
[3]; smokers at risk
  Borg score after challenge: 1.9
